pEC50, pIC50: −log10 of the molar value. Read-outs that look alike come from different tables or passages of the source.

This is an account of results in patent publication US11091428B2 (HAPLOGEN GMBH, priority 2016, dated 2021).

For experiment [1], the system named is picornaviruses (CVB1, HRV-A2, HRV-A23, EV-68). In words: Anti-picornavirus cytopathic effect (CPE) reduction assay on HeLa H1 cells. The format is cell-based. The following applies: Enterovirus B. As for the experimental part: The antiviral activity of selected compounds was tested using a cytopathic effect (CPE) reduction assay on HeLa H1 cells (ATCC CRL-1958). Briefly, cells were seeded in 96-well dishes (2×10^4 cells/well) in DMEM medium (Life technologies) supplemented with 10% FBS and PenStrep solution (100 U/mL Penicillin and 100 μg/mL streptomycin) and incubated at 37° C., 5% CO2 ovemight. The next day, cells were pre-treated with serial dilutions of the compound in DMEM medium supplemented with 2% FBS and PenStrep for 2 h at 37° C., 5% CO2. Next, cells were infected with virus (CVB1, HRV-A2, HRV-A23, EV-68) at an multiplicity of infection (MOI) which results in a complete virus-induced CPE within 2 days in control wells (infected and vehicle-treated). After 48 h, supematants were aspirated and 50 μl/well of CellTiterBlue reagent (Promega) diluted 1:5 in DMEM+2% FBS, was added to the cells. Plates were returned to the incubator and allowed to develop for 1.5 h. After that, plates were equilibrated to RT and subsequently, fluorescence was recorded (Excitation wavelength: 560 nm; emission wavelength: 590 nm) using a SpectraMax M5 multimode plate reader. Viability of cells was calculated according to the formula: V=(RFUCpd−RFUVeh/(RFUM−RFUVeh), where RFUCpd refers to infected and compound-treated cells, RFUVeh to infected and vehicle-treated cells and RFUM to uninfected and vehicle treated cells. Half-maximal effective concentrations (EC50) were calculated by non-linear regression analysis using the drc package in R (R Development. Core Team, 2005). EC50 categories as presented in Table 2 were calculated by averaging the EC50 values from four picornaviruses (CVB1, HRV-A2, HRV-A23, EV68).

The target in another experiment is T1, PLA2G16 (Homo sapiens, UniProt P53816).
T1 construct: Hexa-His (N); made in house; host or cells: E. coli BL21(DE3)
T1 sequence (P53816 1-162): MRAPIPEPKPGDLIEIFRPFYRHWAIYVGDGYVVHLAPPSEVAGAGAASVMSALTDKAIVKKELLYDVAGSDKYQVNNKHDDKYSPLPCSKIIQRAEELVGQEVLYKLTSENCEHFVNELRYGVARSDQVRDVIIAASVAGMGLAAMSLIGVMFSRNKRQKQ
As to the kind of experiment: Enzyme activity assay for PLA2G16 (Red/Green BODIPY PC-A2 fluorescence). It is filed as biochemical. The conditions noted are these: His-tagged PLA2G16, 4 min pre-incubation, 2 nM to 50 μM; read-out: IC50 values of the compounds determined in the enzyme activity assay for PLA2G16. The source says:
A cDNA for PLA2G16(NM_007069) was custom-synthesized by Genscript (Piscataway, USA) and inserted into a pET-based bacterial expression vector [Moffatt, B. A. and Studier, F. W. (1986) J. Mol. Biol. 189, 113-130; Rosenberg, A. H., Lade, B. N., Chui, D., Lin, S., Dunn, J. J., and Studier, F. W. (1987) Gene 56, 125-135], enabling the expression of N-terminally Hexa-His-tagged PLA2G16. E. coli BL21(DE3) (Agilent) were transformed with pET-His-PLA2G16according to the manufacturer's instructions and plated on Carbenicillin-containing agar plates (final concentration: 100 μg/mL). A single clone was in occulated in 100 mL LB medium supplemented with 100 μg/mL Carbenicillin and the in occulated culture was grown at 37° C. overnight in a rotary shaker. On the next day, the bacterial culture was diluted in LB medium supplemented with 100 μg/mL Carbenicillin (30 mL overnight culture in 800 mL total culture volume). Bacteria were grown at 37° C. until the OD600 reached 0.6. Gene expression was induced by addition of 1 mM isopropyl-β-D-thiogalactopyranosid (IPTG) for 2 h at 18° C. Subsequently, bacteria were harvested by centrifugation (15 min; 10,000×g; 4° C.) and frozen at −80° C. The bacterial pellet was resuspended in Buffer A (50 mM Tris/HCl pH 7.5, 500 mM NaCl, 5% glycerol, 5 mM β-Mercaptoethanol and 1 mM PMSF) and lysed by addition of 1 mg/mL lysozyme (Sigma Aldrich) and 100 μg/mL DNasel-(Roche). The sample was incubated at 30° C. for 30 min to allow lysis to occur. Then, the lysate was cleared by centrifugation (15,000×g, 15 min, 4° C.) and incubated with 1.5 mL Ni-NTA agarose suspension (Qiagen) for 60 min at 4° C. The Ni-NTA agarose was washed with 10 mL Buffer A. Bound protein was eluted by applying a manual gradient of Buffer A supplemented with increasing concentrations of imidazole (Sigma Aldrich; 25/50/75/100/250 mM). Purified fractions were analyzed by SDS-PAGE followed by Coomassie staining to assess the purity.
Activity of the protein was assessed as follows: Red/Green BODIPY® PC-A2 (Invitrogen, 1 mM in DMSO) was mixed with equal volumes of 1,2-Dioleoyl-sn-glycero-3-phosphocholine (DOPC; Sigma Aldrich, 10 mM in Ethanol) and 1,2-Dioleoyl-sn-glycero-3-phospho-rac-(1-glycerol) (DOPG; Sigma Aldrich, 10 mM in Ethanol) and 0.5 volumes of Cholesterol (CHOL; Sigma Aldrich, 10 mM in Ethanol) and vortexed for 5 s. The mixture (Red/Green BODIPY® PC-A2/DOPC/DOPG/CHOL) was diluted 1:91.4 in activity assay buffer (50 mM Tris/HCl pH 8.5, 100 mM NaCl) using a small-orifice pipette tip under constant vortexing. In the following, this preparation will be referred to as the “substrate solution”.
In order to evaluate their inhibitory potential, compounds were dissolved at 10 mM concentration in DMSO and directly spotted into assay plates (Corning, Cat. No. 3576) using acoustic liquid transfer (Labcyte Echo 525). Each compound was spotted at increasing concentrations, ranging from 2 nM to 50 μM (concentration in the final assay volume). 50 μl of PLA2G16 enzyme solution (diluted in activity buffer, supplemented with 5 mM L-Glutathione; Sigma Aldrich) was pre-incubated with compounds for 4 min., followed by addition of 50 μl of substrate solution. Fluorescence was recorded immediately after substrate addition for a total time of 10 min. using a SpectraMax M5 multimode reader (Excitation wavelength: 480 nm, emission wavelength: 530 nm). The relative increase of fluorescence over time is referred to as the enzyme activity. Half-maximal inhibitory concentrations (IC50) were derived by non-linear regression analysis using the drc package in R (R Development. Core Team, 2005).

Where [2] appears, read: HeLa H1, 48 h, HeLa H1 cells, 48 h, category from averaging the EC50 values from four picornaviruses (CVB1, HRV-A2, HRV-A23, EV68), read-out: EC50 values of the compounds determined in the anti-picornavirus assay.
Setting [3] is: HeLa H1, 48 h, read-out: EC50 values of the compounds determined in the anti-picornavirus assay, HeLa H1 cells, 48 h, category from averaging the EC50 values from four picornaviruses (CVB1, HRV-A2, HRV-A23, EV68).

The pEC50 is −log10 of the EC50, conventionally taken in molar units. What is called pIC50 is the negative decadic logarithm of the IC50, by convention in mol/L. On to `NC(=O)c1cccc(CN2C(=O)CCC2C(=O)C(=O)NCC2CC2)c1` (stereo not drawn) [FP 250, 3-[(2-{[(Cyclopropylmethyl)carbamoyl]carbonyl}-5-oxopyrrolidin-1-yl)methyl]benzamide], for which the pEC50 in experiment [1] (setting [2]) is 5.00 to 6.00. Moreover, on PLA2G16, the pIC50 was greater than 6.00. For `O=C(NC12CC(C1)C2)C(=O)[C@H]1CCC(=O)N1Cc1ccccc1` [FP 291, 2-[(2R)-1-Benzyl-5-oxopyrrolidin-2-yl]-N-{bicyclo[1.1.1]pentan-1-yl}-2-oxoacetamide] the same measures were greater than 6.00 and greater than 6.00. Take `CCCC(NC(=O)CN(C)C)C(=O)C(=O)NCC1CCCCC1` (stereo not drawn) [FP 207, N-(Cyclohexylmethyl)-3-[2-(dimethylamino)acetamido]-2-oxohexanamide]: in experiment [1] (setting [2]), the pEC50 was 5.00 to 6.00. Also, the pIC50 at PLA2G16 is greater than 6.00.

Regarding `Cc1csc(CN2C(=O)CCC2C(=O)C(=O)NCC2CC2)n1` (stereo not drawn), the pEC50 in experiment [1] (CVB1|EV68|HRVA2|HRVA23, HeLa H1, 48 h, HeLa H1 cells, 48 h, category from averaging the EC50 values from four picornaviruses (CVB1, HRV-A2, HRV-A23, EV68), read-out: EC50 values of the compounds determined in the anti-picornavirus assay) was 5.00 to 6.00. Also, the pIC50 at PLA2G16 was greater than 6.00. Regarding `O=CN(CC1CCOCC1)C(CCc1ccccc1)C(=O)C(=O)NCC1CC1` (stereo not drawn) [FP 68, N-(Cyclopropylmethyl)-3-{N-[(oxan-4-yl)methyl]formamido}-2-oxo-5-phenylpentanamide], in experiment [1] (setting [2]), the pEC50 was greater than 6.00. Moreover, the pIC50 on PLA2G16 was greater than 6.00.

Consider `O=CN(Cc1ccccc1)C(C(=O)C(=O)NCC1CC1)C1CC1` (stereo not drawn) [FP 67, 3-(N-Benzylformamido)-3-cyclopropyl-N-(cyclopropylmethyl)-2-oxopropanamide], for which the pEC50 in experiment [1] (setting [2]) is greater than 6.00. In addition, the pIC50 on PLA2G16 was greater than 6.00. Consider `CCC1CC(=O)N(Cc2ccccc2)C1C(=O)C(=O)NC1CCOCC1` (stereo not drawn) [FP 344, 2-(1-Benzyl-3-ethyl-5-oxopyrrolidin-2-yl)-N-(oxan-4-yl)-2-oxoacetamide], for which the pEC50 in experiment [1] (setting [2]) is greater than 6.00. The pIC50 on PLA2G16 is greater than 6.00. Regarding `O=CN(Cc1ccccc1)[C@@H](Cc1c[nH]cn1)C(=O)C(=O)NCC1CCCCC1` [FP 118, (3S)-3-(N-Benzylformamido)-N-(cyclohexylmethyl)-4-(1H-imidazol-4-yl)-2-oxobutanamide], in experiment [1] (setting [2]), the pEC50 is 5.00 to 6.00. Moreover, at PLA2G16, the pIC50 was greater than 6.00. As for `COc1ccccc1N(C=O)C(C)C(=O)C(=O)NCc1cc(Cl)cc(Cl)c1` (stereo not drawn) [FP 83, N-[(3,5-Dichlorophenyl)methyl]-3-[N-(2-methoxyphenyl)formamido]-2-oxobutanamide], the pIC50 on PLA2G16 is greater than 6.00. Same read-out and setting: the figure for `COc1ccccc1N1C(=O)CC[C@H]1C(=O)C(=O)NCC1CC1` [FP 140, N-(cyclopropylmethyl)-2-[(2S)-1-(2-methoxyphenyl)-5-oxopyrrolidin-2-yl]-2-oxoacetamide] is 4.30 to 5.00. `O=C(NCC1CC1)C(=O)[C@@H]1CCC(=O)N1Cc1ccccc1` [FP 225, 2-[(2S)-1-Benzyl-5-oxopyrrolidin-2-yl]-N-(cyclopropylmethyl)-2-oxoacetamide]: in experiment [1] (setting [3]), the pEC50 was less than 5.00. With `CC(C(=O)C(=O)NCC1CC1)N(C=O)C1CCC(F)(F)CC1` (stereo not drawn) [FP 194, N-(Cyclopropylmethyl)-3-[N-(4,4-difluorocyclohexyl)formamido]-2-oxobutanamide], the pIC50 on PLA2G16 was greater than 6.00. With `CC(C(=O)C(=O)NCc1cccc(Cl)c1)N(C=O)C1CCCCC1` (stereo not drawn) [FP 17, N-[(3-Chlorophenyl)methyl]-3-(N-cyclohexylformamido)-2-oxobutanamide], on PLA2G16, the pIC50 was greater than 6.00. On to `CC(OCC1CCCCC1)C(=O)C(=O)NCC1CC1` (stereo not drawn) [FP 123, 3-(Cyclohexylmethoxy)-N-(cyclopropylmethyl)-2-oxobutanamide], for which the pEC50 in experiment [1] (setting [3]) is 5.00 to 6.00. Consider `COc1cccc(CNC(=O)C(=O)C(C)N(C=O)c2ccccc2OC)c1` (stereo not drawn) [FP 85, 3-[N-(2-Methoxyphenyl)formamido]-N-[(3-methoxyphenyl)methyl]-2-oxobutanamide], for which, at PLA2G16, the pIC50 was greater than 6.00. On to `CC(C(=O)C(=O)NCc1ccccc1)N(C=O)C1CCCCC1` (stereo not drawn) [FP 113, N-Benzyl-3-(N-cyclohexylformamido)-2-oxobutanamide], for which the pIC50 on PLA2G16 was greater than 6.00.
